According to PMC5524405 (PLoS ONE, 2017):

Experiments:
CIA DBA/1 mice [1] = assay: Collagen-induced arthritis (CIA) mouse model, preventative dosing, with or without MTX; format: in vivo
Protocol: (§1) Induction of CIA was performed as described previously. In brief, male DBA/1 mice (Harlan Laboratories, 8–10 weeks old) were injected subcutaneously at the base of the tail with bovine type II collagen (200 μg) admixed with reconstituted Sigma Adjuvant System (Sigma-Aldrich). The mice were boosted 21 days later in the same manner. […] Dosing proceeded from day 0 through study completion (36 days).
(§2) Threshold settings were optimized using histomorphometric methods.

BLK = BLK (Homo sapiens, UniProt P51451); assay: BLK enzymatic assay; settings: read-out: Biochemical IC50, BLK; ATP at apparent KM
Protocol: (§6) Product turnover was quantitated using a Caliper LabChip 3000 (Caliper Life Sciences, Hopkinton, MA, USA). […] [^33P]-ATP was used as a substrate at a concentration equal to KM^app, and incorporation of radiolabel into peptide or protein substrates was measured.

Human recombinant BTK = Human recombinant BTK (Homo sapiens, UniProt Q06187); assay: Human recombinant BTK enzymatic assay (Caliper LabChip); settings: 20 μM ATP, read-out: Biochemical IC50, BTK
From the text: (§7) Product turnover was quantitated using a Caliper LabChip 3000 (Caliper Life Sciences, Hopkinton, MA, USA). Similar assays were used for other kinases (Tec kinase, interleukin [IL]-2-inducible T-cell kinase, B-lymphocyte kinase, T cell-expressed kinase, and bone marrow-expressed kinase), with ATP concentrations equal to the apparent Michaelis constant (KM^app) for each kinase. […] [^33P]-ATP was used as a substrate at a concentration equal to KM^app, and incorporation of radiolabel into peptide or protein substrates was measured.

[2] = test system: KLH-immunized BALB/c mice; assay: Primary anti-KLH antibody responses in mice; format: in vivo, mouse
Protocol: Activity against a KLH-induced antibody response in mice was used as a measure of antigen-driven B-cell responses. Female BALB/c mice (8–12 weeks old) were immunized intraperitoneally (IP) with 250 μg of KLH (Pierce, Rockford, IL, USA) in phosphate-buffered saline on day 0. […] Captured anti-KLH antibodies were detected using horseradish peroxidase-conjugated antibody specific for mouse IgM or IgG (Southern Biotechnology Associates, Birmingham, AL, USA) and the 3,3′,5,5′-tetramethylbenzidine peroxidase substrate system (Kirkegaard and Perry Laboratories, Gaithersburg, MD, USA). Optical densities of developed plates were quantitated in a SpectraMax Plus ELISA plate reader (Molecular Devices, Sunnyvale, CA, USA). Sera collected from mice on day 7 or day 14 after immunization with KLH were pooled and used as a standard comparator.

[3] = test system: B cells in mouse whole blood; assay: Mouse whole blood BCR-stimulated CD69 expression on B cells; format: cell-based
Protocol: For mouse whole blood, stimulation used AffiniPure F(ab’)2 fragment goat anti-mouse IgG + IgM (Jackson ImmunoResearch) at 200 μg/mL and 1 ng/mL mouse IL-4 (R&D Systems, Minneapolis, MN, USA) for 5 hours at 37°C with agitation. After staining with APC rat anti-mouse CD19 antibody (BD Biosciences) to identify the B cells, the amount of CD69 expression was quantitated by FACS using FITC-conjugated anti-mouse CD69 monoclonal antibody (BD Biosciences).

Ramos B cells [4] = assay: BCR-stimulated PLCγ2 phosphorylation in Ramos B cells; format: cell-based; settings: Homo sapiens, anti-IgM, read-out: IC50, BTK-catalyzed phosphorylation of PLCγ2
Protocol: The cells were pelleted and lysed, and PLCγ2 levels were measured by immunoblot using rabbit anti-human phosphoY759-PLCγ2 (Cell Signaling Technology, Danvers, MA, USA) and analyzed using the Odyssey Infrared Imaging System (Li-Cor Biosciences, Lincoln, NE, USA) with normalization to an actin control to ensure consistent loading.

[5] = test system: human peripheral blood B cells; assay: BCR-stimulated CD86 expression on human peripheral blood B cells; format: cell-based; settings: B-cell, BCR (anti-IgM)
From the text: (§3) The cells were stained with fluorescein isothiocyanate (FITC)-conjugated mouse anti-human CD20 antibody (BD Pharmingen, San Diego, CA, USA) and either allophycocyanin (APC)-conjugated mouse anti-human CD86 monoclonal antibody (BD Pharmingen) or phycoerythrin (PE)-conjugated mouse anti-human CD69 monoclonal antibody (BD Pharmingen). The amount of CD86 or CD69 expression was quantitated by median fluorescence intensity (MFI) after gating on the CD20-positive B-cell population using fluorescence-activated cell sorting (FACS) analysis. For analogous experiments measuring the effect of CD40 or Toll-like receptor 4 (TLR4) stimulation on these endpoints, either human IZ-CD40L or lipopolysaccharide (LPS) was used to stimulate the cells.

Src = Src (Homo sapiens, UniProt P12931); assay: Src enzymatic assay
From the text: as §7

[6] = test system: human monocytic osteoclast precursor cells; assay: RANK-L-induced osteoclastogenesis; format: cell-based; settings: TRAP-positive multinucleated cells, 9 days in culture
Protocol: After 9 days in culture, cells were fixed and stained for tartrate-resistant acid phosphatase (TRAP; Sigma-Aldrich, St. Louis, MO, USA), and the number of TRAP-positive multinucleated cells (>2 nuclei per cell) was measured as described previously.

[7] = test system: human peripheral blood B cells; assay: CD40L-induced CD69 expression on peripheral blood B cells; format: cell-based; settings: B-cell, CD40 (CD40L)
From the text: as §3

FGR = FGR (Homo sapiens, UniProt P09769); assay: FGR enzymatic assay; settings: read-out: Biochemical IC50, FGR
[8] = test system: human peripheral blood mononuclear cells; assay: IC-stimulated IL-6 production in peripheral blood mononuclear cells; format: cell-based; settings: PBMC, FcγR (immune complex)
Protocol: (§4) TNF-α and IL-6 levels were measured using enzyme-linked immunosorbent assay (ELISA; TNF-α OptEIA, BD Biosciences; IL-6 OptEIA, BD Biosciences). For analogous experiments measuring the effect of Toll-like receptor 4 stimulation on these endpoints, lipopolysaccharide (Sigma-Aldrich, St. Louis, MO, USA) was used as the stimulus.

Tec = Tec (Homo sapiens, UniProt P42680); assay: Tec kinase enzymatic assay; settings: ATP at apparent KM; read-out: Biochemical IC50, Tec
From the text: as §7

BMX = BMX (Homo sapiens, UniProt P51813); assay: BMX enzymatic assay; settings: read-out: Biochemical IC50, BMX; ATP at apparent KM
Protocol: as §6

[9] = test system: human peripheral blood B cells; assay: CD40L-induced CD86 expression on peripheral blood B cells; format: cell-based; settings: B-cell, CD40 (CD40L)
From the text: as §3

human tonsillar B cells [10] = assay: BCR-stimulated IL-6 from human tonsillar B cells; format: cell-based; settings: B-cell, BCR (anti-IgM)
Protocol: (§5) After 1 hour of incubation at 37°C, the cells were stimulated with 40 μg/mL AffiniPure F(ab’)2 fragment goat anti-human IgM (Jackson ImmunoResearch) and 10 ng/mL IL-4 (Peprotech). After an additional 4.5 hours of incubation, the supernatants were collected and the levels of IL-6 and TNF-α were measured using an enzyme immunoassay.

[11] = test system: human peripheral blood mononuclear cells; assay: IC-stimulated TNF-α production in peripheral blood mononuclear cells; format: cell-based; settings: PBMC, FcγR (immune complex)
Protocol: as §4

human B cells = assay: Antigen receptor-dependent signaling and functional endpoints in human B cells (summary); format: cell-based; settings: read-out: IC50, antigen receptor-dependent signaling and functional endpoints (cytokine production, co-stimulatory molecule expression, proliferation)
Lck = Lck (Homo sapiens, UniProt P06239); assay: Lck enzymatic assay; settings: read-out: Biochemical IC50, Lck
human tonsillar B cells [12] = assay: BCR-stimulated TNF-α from human tonsillar B cells; format: cell-based; settings: B-cell, BCR (anti-IgM)
Protocol: as §5

CAIA BALB/c mice = assay: Collagen antibody-induced arthritis (CAIA) mouse model; format: in vivo
Protocol: Three days later, mice were injected IP with 1.25 mg/kg LPS from Escherichia coli O111:B4 (Sigma-Aldrich). Mice were monitored daily for development and severity of paw inflammation as described previously [24].

IGF1R = IGF1R (Homo sapiens, UniProt P08069); assay: IGF1R enzymatic assay; settings: read-out: Biochemical IC50, IGF1R
From the text: as §7

[13] = test system: B cells in human whole blood; assay: Human whole blood BCR-stimulated CD69 expression on B cells; format: cell-based; settings: B-cell
From the text: The cells were stained with FITC-conjugated mouse anti-human CD20 (BD Pharmingen) and PE-conjugated mouse anti-human CD69 monoclonal antibody (BD Pharmingen), lysed and fixed, then washed. The amount of CD69 expression was quantitated by MFI after gating on the CD20-positive B-cell population as measured by FACS analysis.
The cells were stained with fluorescein isothiocyanate (FITC)-conjugated mouse anti-human CD20 (BD Pharmingen, San Diego, CA, USA) and phycoerythrin (PE)-conjugated mouse anti-human CD69 monoclonal antibody (BD Pharmingen), lysed, fixed, and then washed. The amount of CD69 expression was quantitated by MFI after gating on the CD20-positive B-cell population measured by FACS analysis.

ITK = ITK (Homo sapiens, UniProt Q08881); assay: ITK enzymatic assay; settings: ATP at apparent KM; read-out: Biochemical IC50, ITK
From the text: as §7

CSK = CSK (Homo sapiens, UniProt P41240); assay: CSK enzymatic assay
Protocol: as §6

Txk = Txk (Homo sapiens, UniProt P42681); assay: Txk enzymatic assay; settings: ATP at apparent KM; read-out: Biochemical IC50, Txk
Protocol: as §6

[14] = test system: basophils in human whole blood; assay: Human whole blood FcεRI (anti-IgE)-stimulated CD63 expression on basophils; format: cell-based; settings: read-out: IC50, FcεRI-driven CD63 surface expression on basophils
Protocol: The blood was lysed and fixed, then washed. The percentage of CD63+ cells was measured after gating on the CCR3-positive basophil population by FACS analysis.
The blood was lysed, fixed, and then washed. The percentage of CD63+ cells was measured after gating on the C-C chemokine receptor type 3-positive basophil population by FACS analysis.

[15] = test system: CD27+CD20+ memory B cells (peripheral blood); assay: BCR-stimulated CD86 expression on memory B cells; format: cell-based; settings: Homo sapiens, B-cell, BCR (anti-IgM)
From the text: as §3

human tonsillar B cells [16] = assay: cells; settings: B-cell, read-out: IC50, Proliferation
Protocol: The cells were then labeled with [^3H]-thymidine and incubated overnight at 37°C. Cells were then harvested onto filter plates and the amount of [^3H]-thymidine incorporation, as a measure of B-cell proliferation, was determined using liquid scintillation counting.

Ramos B cells [17] = assay: BCR-stimulated calcium flux in Ramos B cells; format: cell-based; settings: Homo sapiens, BCR (anti-IgM), read-out: IC50, Ca2+ flux
Protocol: BCR-stimulated calcium flux in Ramos B cells: Human Ramos (RA1) B cells, a Burkitt’s lymphoma cell line (ATCC, CRL-1596), pre-loaded with calcium indicator dye (BD Biosciences, San Jose, CA, USA) in media containing 10% FBS, were plated on black clear-bottom assay plates at a density of 1 × 10^6 cells/mL (150,000 cells per well).

CIA DBA/1 mice [18] = assay: CIA mouse model, therapeutic dosing, with or without etanercept; format: in vivo; settings: for Clinical score reduction at end of study: therapeutic (from day 21)
Protocol: Induction of CIA was performed as described previously. In brief, male DBA/1 mice (Harlan Laboratories, 8–10 weeks old) were injected subcutaneously at the base of the tail with bovine type II collagen (200 μg) admixed with reconstituted Sigma Adjuvant System (Sigma-Aldrich). The mice were boosted 21 days later in the same manner. […]
as §2

CIA DBA/1 mice [19] = assay: CIA mouse model, preventative dosing, with or without murine CTLA-4-Ig; format: in vivo; settings: BMS-986142 10 mg/kg PO QD
Protocol: as §1, §2

[20] = test system: human peripheral blood mononuclear cells; assay: LPS (TLR4)-stimulated TNF-α in peripheral blood mononuclear cells; format: cell-based; settings: PBMC
Protocol: as §4

Sequence of ITK (Q08881 whole entry, species assumed): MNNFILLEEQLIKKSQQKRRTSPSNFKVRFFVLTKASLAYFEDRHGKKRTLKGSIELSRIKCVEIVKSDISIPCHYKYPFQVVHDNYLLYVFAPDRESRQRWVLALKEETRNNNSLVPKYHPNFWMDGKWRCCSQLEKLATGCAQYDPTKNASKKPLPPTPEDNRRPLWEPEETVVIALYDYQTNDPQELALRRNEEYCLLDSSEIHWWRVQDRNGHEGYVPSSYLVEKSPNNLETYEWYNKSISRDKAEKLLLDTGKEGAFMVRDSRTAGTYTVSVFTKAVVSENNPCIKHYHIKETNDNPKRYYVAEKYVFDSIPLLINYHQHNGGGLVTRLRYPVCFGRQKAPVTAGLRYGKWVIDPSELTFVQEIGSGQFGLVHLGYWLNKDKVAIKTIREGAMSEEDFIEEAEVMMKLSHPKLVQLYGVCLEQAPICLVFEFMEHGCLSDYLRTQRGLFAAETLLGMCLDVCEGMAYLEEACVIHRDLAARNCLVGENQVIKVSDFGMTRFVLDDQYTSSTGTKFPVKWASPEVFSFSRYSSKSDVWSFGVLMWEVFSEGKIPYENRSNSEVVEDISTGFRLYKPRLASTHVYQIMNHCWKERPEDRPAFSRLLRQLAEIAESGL
Sequence of Src (P12931 whole entry, species assumed): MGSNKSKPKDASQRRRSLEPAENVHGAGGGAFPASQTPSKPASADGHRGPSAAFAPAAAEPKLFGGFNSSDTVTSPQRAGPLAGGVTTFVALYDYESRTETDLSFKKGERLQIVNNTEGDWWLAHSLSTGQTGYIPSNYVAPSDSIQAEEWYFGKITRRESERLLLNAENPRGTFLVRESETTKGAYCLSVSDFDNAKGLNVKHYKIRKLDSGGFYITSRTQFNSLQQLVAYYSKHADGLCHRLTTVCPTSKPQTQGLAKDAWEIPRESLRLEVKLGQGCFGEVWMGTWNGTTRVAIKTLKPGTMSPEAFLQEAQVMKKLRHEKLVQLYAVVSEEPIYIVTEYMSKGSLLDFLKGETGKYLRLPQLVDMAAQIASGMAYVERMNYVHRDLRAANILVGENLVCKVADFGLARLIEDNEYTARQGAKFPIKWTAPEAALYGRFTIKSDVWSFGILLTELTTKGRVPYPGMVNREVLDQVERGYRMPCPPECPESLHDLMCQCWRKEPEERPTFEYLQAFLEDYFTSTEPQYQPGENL
Sequence of BLK (P51451 whole entry, species assumed): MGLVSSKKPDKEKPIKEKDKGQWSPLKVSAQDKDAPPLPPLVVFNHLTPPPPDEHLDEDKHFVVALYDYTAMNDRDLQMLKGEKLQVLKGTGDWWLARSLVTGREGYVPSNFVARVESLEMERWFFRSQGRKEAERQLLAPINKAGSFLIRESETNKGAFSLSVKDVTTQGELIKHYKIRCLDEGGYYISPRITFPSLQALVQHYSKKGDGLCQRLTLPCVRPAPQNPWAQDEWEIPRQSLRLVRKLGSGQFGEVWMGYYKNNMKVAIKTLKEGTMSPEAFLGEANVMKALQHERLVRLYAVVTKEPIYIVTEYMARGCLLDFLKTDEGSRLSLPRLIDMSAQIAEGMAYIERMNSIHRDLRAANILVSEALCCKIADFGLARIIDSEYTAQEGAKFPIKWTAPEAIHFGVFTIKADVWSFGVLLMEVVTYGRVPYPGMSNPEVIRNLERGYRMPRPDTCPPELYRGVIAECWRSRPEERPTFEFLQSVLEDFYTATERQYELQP
Sequence of Human recombinant BTK (Q06187 whole entry): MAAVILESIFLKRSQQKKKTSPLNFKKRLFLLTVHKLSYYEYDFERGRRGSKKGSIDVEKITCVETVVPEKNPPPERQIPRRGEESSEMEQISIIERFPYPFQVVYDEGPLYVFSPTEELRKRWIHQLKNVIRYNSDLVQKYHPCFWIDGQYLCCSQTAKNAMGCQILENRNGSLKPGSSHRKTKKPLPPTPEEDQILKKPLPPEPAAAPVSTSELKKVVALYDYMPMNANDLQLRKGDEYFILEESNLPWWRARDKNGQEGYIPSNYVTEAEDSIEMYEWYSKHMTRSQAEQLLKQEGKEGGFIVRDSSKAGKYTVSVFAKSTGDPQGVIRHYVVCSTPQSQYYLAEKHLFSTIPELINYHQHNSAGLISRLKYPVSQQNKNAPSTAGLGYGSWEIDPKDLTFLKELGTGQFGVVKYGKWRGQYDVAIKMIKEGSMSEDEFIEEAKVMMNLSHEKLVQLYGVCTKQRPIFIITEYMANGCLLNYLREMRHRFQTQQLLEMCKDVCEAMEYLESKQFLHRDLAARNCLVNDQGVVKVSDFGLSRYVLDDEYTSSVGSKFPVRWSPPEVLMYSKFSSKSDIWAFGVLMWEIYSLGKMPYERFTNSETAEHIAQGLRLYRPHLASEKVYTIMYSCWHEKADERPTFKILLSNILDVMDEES
Sequence of IGF1R (P08069 31-1367, species assumed): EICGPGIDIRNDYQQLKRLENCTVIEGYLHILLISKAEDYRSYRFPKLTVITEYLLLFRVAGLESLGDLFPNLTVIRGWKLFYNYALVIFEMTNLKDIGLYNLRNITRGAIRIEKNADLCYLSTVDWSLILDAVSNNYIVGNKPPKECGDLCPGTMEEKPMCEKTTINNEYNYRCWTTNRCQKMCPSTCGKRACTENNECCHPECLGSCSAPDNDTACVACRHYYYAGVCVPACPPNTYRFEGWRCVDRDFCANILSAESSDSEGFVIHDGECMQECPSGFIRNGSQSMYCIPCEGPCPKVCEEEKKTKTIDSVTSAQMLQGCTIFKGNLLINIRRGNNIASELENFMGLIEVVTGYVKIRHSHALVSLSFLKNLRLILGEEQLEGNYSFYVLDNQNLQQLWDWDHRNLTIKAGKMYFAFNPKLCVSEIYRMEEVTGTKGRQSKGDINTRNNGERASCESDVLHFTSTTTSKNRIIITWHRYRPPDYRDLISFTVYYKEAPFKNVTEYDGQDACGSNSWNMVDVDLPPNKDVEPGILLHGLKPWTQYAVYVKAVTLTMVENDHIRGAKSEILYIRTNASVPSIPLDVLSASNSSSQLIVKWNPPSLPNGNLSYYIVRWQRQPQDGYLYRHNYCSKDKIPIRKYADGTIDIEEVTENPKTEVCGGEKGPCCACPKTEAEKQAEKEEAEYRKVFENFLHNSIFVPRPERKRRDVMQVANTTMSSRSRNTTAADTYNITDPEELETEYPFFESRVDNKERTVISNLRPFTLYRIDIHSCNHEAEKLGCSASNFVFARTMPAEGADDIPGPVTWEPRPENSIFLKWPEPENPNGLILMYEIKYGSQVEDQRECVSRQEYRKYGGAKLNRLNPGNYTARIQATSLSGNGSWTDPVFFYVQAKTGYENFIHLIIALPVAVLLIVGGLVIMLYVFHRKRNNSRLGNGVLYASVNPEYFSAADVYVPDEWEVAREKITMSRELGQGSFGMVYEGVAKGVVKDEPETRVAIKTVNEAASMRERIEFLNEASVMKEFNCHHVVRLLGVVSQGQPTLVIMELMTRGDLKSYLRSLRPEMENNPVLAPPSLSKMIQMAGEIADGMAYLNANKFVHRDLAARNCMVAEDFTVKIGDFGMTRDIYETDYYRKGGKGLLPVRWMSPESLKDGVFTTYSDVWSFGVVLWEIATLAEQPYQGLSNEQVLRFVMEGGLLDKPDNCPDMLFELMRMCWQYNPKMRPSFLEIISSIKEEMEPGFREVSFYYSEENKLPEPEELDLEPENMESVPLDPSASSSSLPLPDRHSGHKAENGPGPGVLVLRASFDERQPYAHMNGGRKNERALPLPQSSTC
Sequence of FGR (P09769 whole entry, species assumed): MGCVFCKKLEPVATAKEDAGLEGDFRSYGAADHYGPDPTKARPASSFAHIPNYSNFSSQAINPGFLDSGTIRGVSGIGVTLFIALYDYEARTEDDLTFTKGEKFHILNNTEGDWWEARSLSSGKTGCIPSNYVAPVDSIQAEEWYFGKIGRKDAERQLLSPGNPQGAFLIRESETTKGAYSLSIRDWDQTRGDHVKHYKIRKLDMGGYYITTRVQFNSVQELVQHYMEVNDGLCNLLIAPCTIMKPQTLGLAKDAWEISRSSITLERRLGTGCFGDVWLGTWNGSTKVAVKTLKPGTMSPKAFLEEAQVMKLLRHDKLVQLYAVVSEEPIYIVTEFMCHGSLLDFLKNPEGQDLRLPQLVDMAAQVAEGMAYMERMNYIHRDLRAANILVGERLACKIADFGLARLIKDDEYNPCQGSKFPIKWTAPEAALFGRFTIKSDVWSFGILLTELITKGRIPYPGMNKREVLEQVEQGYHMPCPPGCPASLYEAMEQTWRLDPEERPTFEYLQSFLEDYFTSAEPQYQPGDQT
Sequence of CSK (P41240 whole entry, species assumed): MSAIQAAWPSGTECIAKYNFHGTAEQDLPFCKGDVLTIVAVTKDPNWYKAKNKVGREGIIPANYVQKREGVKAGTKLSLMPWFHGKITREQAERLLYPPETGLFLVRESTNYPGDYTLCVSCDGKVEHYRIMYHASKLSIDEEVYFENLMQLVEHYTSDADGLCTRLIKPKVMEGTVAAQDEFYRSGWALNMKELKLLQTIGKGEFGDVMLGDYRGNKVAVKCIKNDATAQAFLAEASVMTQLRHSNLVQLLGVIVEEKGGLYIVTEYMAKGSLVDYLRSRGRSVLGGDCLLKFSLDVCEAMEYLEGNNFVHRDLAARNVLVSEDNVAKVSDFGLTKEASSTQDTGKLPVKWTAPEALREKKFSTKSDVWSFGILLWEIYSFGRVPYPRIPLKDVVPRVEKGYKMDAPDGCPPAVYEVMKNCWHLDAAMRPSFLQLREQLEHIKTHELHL

CN(Cc1cnc2nc(N)nc(N)c2n1)c1ccc(C(=O)N[C@@H](CCC(=O)O)C(=O)O)cc1 [MTX, methotrexate, reference compound]
Reduction in inflammation and bone resorption (histology) (CIA DBA/1 mice [1]; MTX alone): 10%

Cc1c(-c2c(F)cc(C(N)=O)c3[nH]c4c(c23)CC[C@H](C(C)(C)O)C4)cccc1-n1c(=O)c2cccc(F)c2n(C)c1=O [BMS-986142, 6-fluoro-5-(R)-(3-(S)-(8-fluoro-1-methyl-2,4-dioxo-1,2-dihydroquinazolin-3(4H)-yl)-2-methylphenyl)-2-(S)-(2-hydroxypropan-2-yl)-2,3,4,9-tetrahydro-1H-carbazole-8-carboxamide]
IC50 (BLK): 23 nM
IC50 (Human recombinant BTK): 0.5 nM
Inhibition of anti-KLH IgM response ([2]; 30 mg/kg PO QD, day 7): 77%
Inhibition of anti-KLH IgG response ([2]; 30 mg/kg PO QD, day 14): 87%
Anti-KLH IgM and IgG antibody responses versus vehicle ([2]; 10 and 30 mg/kg PO QD): Significant reductions
IC50 [3]: 140 nM
IC50 (Ramos B cells [4]): ~20 nM
IC50 [5]: 4 ± 3 nM
IC50 (Src): 1110 nM
Lowest concentration at which inhibition of RANK-L-induced osteoclastogenesis was evident [6]: 15 nM
IC50 [7]: > 10000 nM
IC50 (FGR): 81 nM
IC50 [8]: 4 ± 3 nM
IC50 (Tec): 10 nM
IC50 (BMX): 32 nM
Disease-associated increase in splenic CD138+B220low plasma cells (CIA DBA/1 mice [1]): inhibited
Effect on B cell numbers (CIA DBA/1 mice [1]): did not deplete B cells
Expression of CD38 on plasma cells induced by disease (CIA DBA/1 mice [1]): inhibited
Reduction in clinically evident disease at end of study (CIA DBA/1 mice [1]; 4 mg/kg PO QD): 26%
Reduction in clinically evident disease at end of study (CIA DBA/1 mice [1]; 10 mg/kg PO QD): 43%
Reduction in clinically evident disease at end of study (CIA DBA/1 mice [1]; 30 mg/kg PO QD): 79%
Serum anti-collagen II IgG titers (CIA DBA/1 mice [1]; 10 and 30 mg/kg): significantly inhibited
Reduction in inflammation and bone resorption (histology) (CIA DBA/1 mice [1]; BMS-986142 4 mg/kg alone): 24%
IC50 [9]: > 10000 nM
IC50 (human tonsillar B cells [10]): 5 ± 3 nM
IC50 [11]: 3 ± 3 nM
IC50 (human B cells): ≤ 5 nM
IC50 (Lck): 71 nM
IC50 (human tonsillar B cells [12]): 3 ± 3 nM
Reduction of clinical scores at study end (CAIA BALB/c mice; 5 mg/kg, prophylactic): 72%
Inhibition of clinical scores at study end (CAIA BALB/c mice; 20 mg/kg, prophylactic): > 90%
Histological bone resorption and inflammation scores of hind paws (CAIA BALB/c mice; 5 and 20 mg/kg): effective at reducing bone resorption as well as inflammation scores
IC50 (IGF1R): 247 nM
IC50 [13]: 90 nM
IC50 (ITK): 15 nM
IC50 (CSK): 148 nM
IC50 (Txk): 28 nM
IC50 [14]: 89 nM
IC50 [15]: 3 ± 3 nM
IC50 (human tonsillar B cells [16]): 3 ± 1 nM
IC50 (Ramos B cells [17]): 9 ± 5 nM
Clinical score reduction at end of study (CIA DBA/1 mice [18]; 2 mg/kg): 17%
Clinical score reduction at end of study (CIA DBA/1 mice [18]; 4 mg/kg): 37%
Clinical score reduction at end of study (CIA DBA/1 mice [18]; 25 mg/kg): 67%
Disease-induced remodeling/erosions and loss of bone mass compared with vehicle (micro-CT) (CIA DBA/1 mice [18]; therapeutic, 2, 4 and 25 mg/kg): dose-dependent protection
Reduction of clinical scores (CIA DBA/1 mice [19]): 46%
IC50 [20]: > 30000 nM
